Entries after “also recorded” stand apart in the source; their conditions may differ.
Tests used:
Assay type in all cases: cell-based
HEK293 cells = experiment: Blue light induced stress granules: staining for stress granule markers and mRNA; conditions: blue light stimulation
Source text: FIGS. 2A-2B. Blue light induced stress granules using a NcVVDY50W-G3BP1 protein arrangement. […] A DNA arrangement that generates the NcVVDY50W-G3BP1 was developed and expressed in HEK293 cells. Under normal conditions, the NcVVDY50W-G3BP1 remains diffuse in the cytoplasm. When endogenous stress granule formation is induced with heat shock, the NcVVDY50W-G3BP1 forms stress granules that stain positive for key markers including Ataxin-2 and TIAR.
FIG. 5. […] Under normal conditions, G3BP1-NcVVDY50W remains diffuse in the cytoplasm. When endogenous stress granule formation is induced with NaAsO2 (0.5 mM, 30 min treatment), the G3BP1-NcVVDY50W forms stress granules that stain positive for key markers TDP-43 and eIF4G. […] As an example of this technology, DNA arrangements were developed that generated G3BP1-NcVVDY50W, and expressed in HEK293 cells. Under normal conditions, the G3BP1-NcVVDY50W remains diffuse in the cytoplasm. When endogenous stress granule formation is induced with sodium arsenite, the G3BP1-NcVVDY50W forms stress granules that probe positive for key markers, including TDP-43 and eIF4G. […] Inserts are 3D images of stress granules indicated by arrows.
While stress granule dynamics are shown to be altered in these diseases, the true contributions of stress granules to disease pathobiology is unknown since the only current method to form these organelles is to introduce an extracellular stressor (e.g. heat stress at 43° C., exposure to sodium arsenite) which is toxic to cells and ultimately kills the cells being studied. The longest studies of stress granules to date are only on the order of a few hours and so, the importance of these organelles in the initiation of neurodegeneration or cancer cannot be assessed. Therefore, a method to control stress granule formation was developed using light, without the need for any extracellular stressors. To achieve this, the DNA encoding specific photoreceptor protein domains that self-bind with blue light exposure were linked to the DNA of a key protein required for the formation of stress granules, G3BP1 or TIA1. These arrangements were then expressed in HEK293 cells and were tested for their ability to form functional stress granules with various blue light treatment paradigms. It was shown that the LOV photoreceptor domain, from the Vivid protein of N. crassa, which is known to dimerize with blue light exposure, when fused to G3BP1 and exposed to 15-1080 min of 465 nm light at 0.1-1.0 mW/cm2 initiates the formation of a core stress granule structure consisting of the photoreceptors fused to G3BP1 that recruits additional G3BP1 and accessory proteins that comprise stress granules and allow for their maturation. This likely involved the liquid-liquid phase separation (LLPS) and dimerization and oligomerization of G3BP1 (concept represented in FIG. 1).

[1] = test system: ReNCell differentiated cortical neuron-like cells; experiment: Blue light induced stress granules in ReNCell differentiated cortical neuron-like cells
Source text: FIG. 20. Blue light induced stress granules using a G3BP1-NcVVDY50W protein arrangement in ReNCell differentiated cortical neuron-like cells. A DNA arrangement that generates the G3BP1-NcVVDY50W was developed and expressed in ReNCell differentiated cortical neuron-like cells. To confirm differentiation of ReN cells to cortical neuron-like cells, cultures were probed for MAP2, a protein that is only expressed in neurons. Under normal conditions, the NcVVDY50W-G3BP1 remains diffuse in the cytoplasm.

phospho-eIF2a and ATF4 = experiment: Western blotting for integrated stress response (ISR) components; conditions: total protein of cells with blue light induced stress granules
Source text: FIGS. 21A-21B. […] Total cellular protein from blue light induced stress granules using G3BP1-NcVVDY50W protein arrangement was collected.

protein synthesis = experiment: De novo protein synthesis, HPG incorporation with Click-iT detection
Method: FIGS. 14A-14B. […] The major function of endogenous stress granules is to bind mRNAs and halt protein synthesis until the cellular stress is removed. To test this, cells expressing G3BP1-NcVVDY50W were either exposed to blue light stimulation or not for 30 minutes and protein translation was assessed. Prior to the translation assay, cells were treated with cyclohexamide for one hour to inhibit protein synthesis and then the cyclohexamide was removed and cells were provided L-Homopropargylglycine (HPG) for one hour. HPG acts as a methionine amino acid analog and is incorporated into newly synthesized proteins. Click-iT™ chemistry was then performed to detect HPG and cells were imaged. Green signal indicates newly synthesized proteins during the time at which HPG is present in the media.
FIGS. 24A-24E. Replacing the G3BP1 NTF2 domain, which is required for G3BP1 self-oligomerization (optoSG), with oligomerizing photoreceptors, is sufficient to initiate the formation of optogenetic stress granules. FIG. 24A) Schematics of an additional approach to seed optoStress Granules (optoSGs) employing truncated G3BP1 protein and replacing the NTF2 oligomerizing domain with a photoreceptor with the capacity to oligomerize (in this instance Cry2-PHR, but also works with chronic stimulation of dimerizing photoreceptor). FIG. 24B) HEK cells expressing Cry2 PHR-[…]NTF-G3BP1 were exposed to blue light LED stimulation for 30 minutes to induce the formation of optoSGs.

## G3BP1-NcVVDY50W: G3BP1 Full Length Protein with NcVivid Y50W, SEQ ID NO: 16
HEK293 cells
  colocalization of blue light induced stress granules with stress granule markers: colocalize with the key translation factor eIF4G, and the stress granule marker Ataxin-2; also recorded: colocalize with the key stress granule markers TIAR and G3BP; also recorded: probe positive for TDP-43 and eIF4G; also recorded: colocalize with the key stress granule markers RPS6 and eIF4G (FIG. 6A), as well as Ataxin-2 and RPS3; also recorded: colocalize with the key stress granule markers PABPC1 and G3BP (FIG. 7A), as well as eIF3H and eIF4G; also recorded: colocalize with the key stress granule markers FUS and G3BP; also recorded: colocalize with the key stress granule marker Ataxin-2, but not RPL36a
  mRNA sequestration by blue light induced stress granules: sequester cytoplasmic mRNA
[1]
  colocalization of blue light induced stress granules with Ataxin-2: colocalize with the key stress granule marker Ataxin-2
phospho-eIF2a and ATF4
  induction of cell stress (phospho-eIF2a, ATF4): do not induce a cell stress
Protein synthesis; blue light stimulation 30 minutes, HPG for one hour
  reduction in protein synthesis with light-induced stress granules: 40%
Protein synthesis; blue light stimulation, Click-iT detection
  protein synthesis (HPG signal) with light-induced stress granules: little to no HPG signal
